Paper PMC8153121, “N-Alkylation of Anthracycline Antibiotics by Natural Sesquiterpene Lactones as a Way to Obtain Antitumor Agents with Reduced Side Effects” (Biomedicines, 2021)
Like-named read-outs stand apart in the source and are kept apart here.

Assays:
[1] = tested on: HEK293 (embryonic kidney); assay: MTT cell viability test, non-transformed HEK293; assay type: cell-based, Human; details: read-out: IC50, HEK293
Description: (§1) Human cell cultures of tumor origin (A549 (lung carcinoma), HCT116 (colon adenocarcinoma), MCF7 (breast cancer), RD (embryonic rhabdomyosarcoma)), and the line of non-transformed cells HEK293 (embryonic kidney) provided by the Laboratory of Tumor Cell Genetics at the N.N. Blokhin Russian Cancer Research Institute, as well as by the Institute of Cytology of the Russian Academy of Sciences, were grown in DMEM (Gibco, Scotland, UK) and MEM (Gibco, Scotland, UK) containing fetal calf serum (10% by volume) (ThermoFisher Scientific, Paisley, UK), L-glutamine (2 mM) (Gibco, Scotland, UK), and penicillin-streptomycin (1% by volume) (PanEco, Moscow, Russia).
(§2) Cellular viability was determined by the MTT test. […] After 24 h of incubation, various concentrations of the test compounds dissolved in DMSO (≤1%) were added to the cell cultures, the solvent was added to the control wells in an equal volume, and then the cells were cultured under the same conditions for 72 h. After the incubation time, MTT (3-(4,5-dimethylthiazol-2-yl)-2,5-diphenyltetrazolium bromide, 5 mg/mL) was added to each well, and the plates were further incubated for 2 h (until a characteristic color appeared). Then, the formazan granules were dissolved in DMSO.
(§3) Using a plate analyzer (Cytation3, BioTech Instruments Inc., USA), the optical density was determined at λ = 530 nm.

[2] = tested on: MCF7 (breast cancer); assay: MTT cell viability test, MCF7; assay type: cell-based, Human; details: read-out: IC50, MCF7
Description: as §1, §2, §3

[3] = tested on: RD (embryonic rhabdomyosarcoma); assay: MTT cell viability test, RD; assay type: cell-based, Human; details: 72 h, read-out: IC50, RD
Description: as §1, §2, §3

[4] = tested on: HCT116 (colon adenocarcinoma); assay: MTT cell viability test, HCT116; assay type: cell-based, Human; details: read-out: IC50, HCT116
Description: as §1, §2, §3

[5] = target: T1, cytochrome-c-oxidase complex of the mitochondrial respiratory chain (IV) (Rattus norvegicus, UniProt P00406+P05503+P05505); assay: Respiratory chain complex IV, OCR of isolated rat heart mitochondria (Seahorse); assay type: biochemical; details: isolated rat heart mitochondria 10 μg/well, compounds at 30 μM
T1 construct: Rat heart mitochondria were isolated by differential centrifugation; from tissue; host or cells: rat heart mitochondria
T1 sequence (P00406 whole entry, other chains not shown): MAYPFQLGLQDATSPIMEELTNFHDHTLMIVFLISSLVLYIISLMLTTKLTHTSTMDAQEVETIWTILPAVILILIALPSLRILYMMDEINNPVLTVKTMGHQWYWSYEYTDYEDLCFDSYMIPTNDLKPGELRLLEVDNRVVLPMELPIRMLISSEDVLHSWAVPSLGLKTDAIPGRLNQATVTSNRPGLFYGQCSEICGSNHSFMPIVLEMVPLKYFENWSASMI
T1 sequence (P05505 whole entry, other chains not shown): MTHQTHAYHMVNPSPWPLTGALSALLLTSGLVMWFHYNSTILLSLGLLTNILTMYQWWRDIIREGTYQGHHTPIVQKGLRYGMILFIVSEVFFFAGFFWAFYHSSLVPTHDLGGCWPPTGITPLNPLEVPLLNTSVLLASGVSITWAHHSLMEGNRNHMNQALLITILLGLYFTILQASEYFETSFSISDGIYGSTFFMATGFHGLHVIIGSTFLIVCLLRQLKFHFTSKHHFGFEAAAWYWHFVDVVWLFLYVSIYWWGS
Description: (§4) Rat heart mitochondria were isolated by differential centrifugation using ice-cold buffer containing KCl (120 mM) and HEPES (20 mM), pH = 7.4, and a trypsin inhibitor. The mitochondrial yield ranged from 5 to 10 mg/mL of protein in the heart sediment. Mitochondria were stored in plastic containers at 4 °C.
(§5) The effect of the compounds on the functioning of the electron transport chain complexes was carried out using an Agilent Seahorse XF96e Analyzer (Seahorse Bioscience, Billerica, MA, USA) according to their ability to change the rate of oxygen uptake by isolated rat heart mitochondria (10 μg/well). The following modulators were used: activators of complex I of the electron transport chain, NADH dehydrogenase,—glutamate/malate; rotenone (2 μM) (Sigma Aldrich, Saint Louis, USA)—a tissue respiration blocker that stops the transfer of electrons from the reduced form of NADH to cytochrome b, was used as complex I inhibitor; potassium succinate ([…]) (Dia-M, Moscow, Russia), which is a substrate of complex II of the electron transport chain, made it possible to assess mitochondrial respiration mediated by succinate dehydrogenase; complex III (ubiquinol-cytochrome c-oxidoreductase) inhibitor—a blocker of cellular respiration antimycin A (Sigma Aldrich, Saint Louis, USA), as well as ascorbate/TMPD (0.5 μM) (Sigma Aldrich, Saint Louis, USA), allowed us to evaluate the cytochrome-c-oxidase mediated respiration of organelles.

[6] = target: T2, complex II of the electron transport chain (Rattus norvegicus, UniProt P21913+Q641Z9+Q6PCT8+Q920L2); assay: Respiratory chain complex II, OCR of isolated rat heart mitochondria (Seahorse); assay type: biochemical; details: isolated rat heart mitochondria 10 μg/well, compounds at 30 μM
T2 construct: Rat heart mitochondria were isolated by differential centrifugation; from tissue; host or cells: rat heart mitochondria
T2 sequence (Q920L2 35-656): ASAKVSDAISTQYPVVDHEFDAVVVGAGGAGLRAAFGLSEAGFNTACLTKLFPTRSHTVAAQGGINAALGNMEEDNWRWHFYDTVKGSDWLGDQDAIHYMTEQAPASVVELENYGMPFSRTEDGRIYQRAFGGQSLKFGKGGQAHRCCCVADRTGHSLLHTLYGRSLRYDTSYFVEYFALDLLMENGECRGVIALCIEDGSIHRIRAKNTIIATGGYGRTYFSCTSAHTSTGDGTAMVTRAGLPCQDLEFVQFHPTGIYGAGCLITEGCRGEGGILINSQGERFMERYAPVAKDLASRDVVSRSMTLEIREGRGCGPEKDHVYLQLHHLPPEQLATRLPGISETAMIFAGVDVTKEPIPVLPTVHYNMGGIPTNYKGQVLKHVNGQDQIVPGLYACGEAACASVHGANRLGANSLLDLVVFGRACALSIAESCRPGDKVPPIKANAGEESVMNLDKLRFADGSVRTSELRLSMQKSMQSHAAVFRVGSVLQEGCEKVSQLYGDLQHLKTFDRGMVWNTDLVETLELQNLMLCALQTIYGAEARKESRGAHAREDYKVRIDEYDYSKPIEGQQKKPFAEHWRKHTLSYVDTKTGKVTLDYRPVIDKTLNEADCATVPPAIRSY
T2 sequence (P21913 31-282): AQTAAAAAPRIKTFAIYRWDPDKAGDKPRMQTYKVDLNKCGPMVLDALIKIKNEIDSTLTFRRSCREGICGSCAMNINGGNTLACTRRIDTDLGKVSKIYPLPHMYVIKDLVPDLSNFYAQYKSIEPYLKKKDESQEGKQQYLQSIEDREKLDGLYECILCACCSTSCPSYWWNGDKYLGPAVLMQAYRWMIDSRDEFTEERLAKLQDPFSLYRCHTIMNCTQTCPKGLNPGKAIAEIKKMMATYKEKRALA
T2 sequence (Q641Z9 30-169 limits assumed): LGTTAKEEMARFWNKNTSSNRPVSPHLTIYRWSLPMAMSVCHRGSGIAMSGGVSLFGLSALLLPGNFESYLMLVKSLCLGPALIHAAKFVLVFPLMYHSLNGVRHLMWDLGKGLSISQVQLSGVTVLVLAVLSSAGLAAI
T2 sequence (Q6PCT8 57-159): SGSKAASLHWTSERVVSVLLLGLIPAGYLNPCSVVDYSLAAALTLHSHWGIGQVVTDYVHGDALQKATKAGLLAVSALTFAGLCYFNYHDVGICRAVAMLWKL
Description: as §4, §5

[7] = tested on: rat heart mitochondria; assay: Mitochondrial swelling; assay type: biochemical; details: rat heart mitochondria 0.5 mg/mL, compounds at 100 μM, Ca2+ 25 μM
Description: as §4
Mitochondrial swelling was recorded by the light transmission of the rat heart mitochondrial suspension at λ = 540 nm using a Victor 3 plate analyzer (Perkin Elmer, Germany). The swelling rate was estimated as △A540/min and was calculated as the tangent of the angle of the steepest dependence curve part △A540 versus time.

[8] = tested on: A549 (lung carcinoma); assay: MTT cell viability test, A549; assay type: cell-based, Human; details: read-out: IC50, A549
Description: as §1, §2, §3

[9] = MTT, 72 h, non-transformed cells
[10] = Homo sapiens, HEK293, 72 h, MTT, 72 h, non-transformed cells
[11] = Homo sapiens, MCF7, 72 h, MTT, 72 h
[12] = Homo sapiens, HCT-116, 72 h, MTT, 72 h
[13] = Homo sapiens, A549, 72 h, MTT, 72 h

Row | SMILES | IC50 [1, 9] [µM] | IC50 ([2]; MTT, 72 h) [µM] | IC50 ([3]; MTT) [µM] | IC50 ([4]; MTT, 72 h) [µM] | Work of Respiratory Chain Complexes, % Decrease in OCR of Control, IV [5] | Work of Respiratory Chain Complexes, % Decrease in OCR of Control, II [6] | Mitochondrial Swelling, % of Ca2+-Induced Swelling [7] | IC50 ([8]; MTT, 72 h) [µM] | IC50 [1, 10] [µM] | IC50 [2, 11] [µM] | IC50 ([3]; Homo sapiens, MTT) [µM] | IC50 [4, 12] [µM] | IC50 [8, 13] [µM] | further results
1 | COc1cccc2c1C(=O)c1c(O)c3c(c(O)c1C2=O)C[C@@](O)(C(=O)CO)C[C@@H]3O[C@H]1C[C@H](NC[C@H]2C(=O)O[C@@H]3C[C@@]4(C)CCC[C@H](C)C4=C[C@@H]32)[C@H](O)[C@H](C)O1 [Compound 2a] | 29.83 ± 0.18 | 26.8 ± 0.65 | 2.67 ± 0.11 | 4.55 ± 0.03 | 20.45 ± 5.85% | 39.11 ± 4.05% | 31.51 ± 8.35% | 3.29 ± 0.11 |  |  |  |  |  | 
2 | COc1cccc2c1C(=O)c1c(O)c3c(c(O)c1C2=O)C[C@@](O)(C(C)=O)C[C@@H]3O[C@H]1C[C@H](NC[C@H]2C(=O)O[C@@H]3CC4=CCC[C@H](C)[C@@]4(C)[C@@H](O)[C@@H]32)[C@H](O)[C@H](C)O1 [Compound 7b, (8S,10S)-8-Acetyl-6,8,11-trihydroxy-10-(((2R,4S,5S,6S)-5-hydroxy-4-((((3S,3aS,4S,4aR,5S,9aR)-4-hydroxy-4a,5-dimethyl-2-oxo-2,3,3a,4,4a,5,6,7,9,9a-decahydronaphtho[2,3-b]furan-3-yl)methyl)amino)-6-methyltetrahydro-2H-pyran-2-yl)oxy)-1-methoxy-7,8,9,10-tetrahydrotetracene-5,12-dione] |  |  |  |  | 46.08 ± 3.42% | 21.04 ± 4.22% | — (“—” indicates activity absence for compounds (≤10%) in a particular test) |  |  |  |  |  |  | melting point: 155 to 162 °C; IC50 ([1]; Homo sapiens, HEK293, 72 h): 6.42 ± 0.21 µM; IC50 ([2]; Homo sapiens, MCF7, 72 h): 1.9 ± 0.07 µM; IC50 ([3]; Homo sapiens): 1.95 ± 0.01 µM; IC50 ([4]; Homo sapiens, HCT-116, 72 h): 0.2 ± 0.01 µM; IC50 ([8]; Homo sapiens, A549, 72 h): 2.01 ± 0.09 µM
3 | COc1cccc2c1C(=O)c1c(O)c3c(c(O)c1C2=O)CC(O)(C(C)=O)CC3OC1CC(NCC2C(=O)OC3CC4(C)CCCC(C)C45OC5C32)C(O)C(C)O1 (stereo not shown) [Compound 5b] | 18.19 ± 0.18 | 1.84 ± 0.06 | 0.8 | 1.3 ± 0.02 | 21.56 ± 3.66% | — (“—” indicates activity absence for compounds (≤10%) in a particular test) | — (“—” indicates activity absence for compounds (≤10%) in a particular test) | 1.19 ± 0.02 |  |  |  |  |  | 
4 | C=C1C(=O)OC2CC3(C)CCCC4(CO4)C3CC12 (stereo not shown) [Compound 4, epoxy-isoalantholactone, reference compound] |  |  |  |  |  |  |  |  | 106 ± 4.13 | 31.87 ± 0.14 | 18.6 ± 0.21 | 21.4 ± 0.32 | 83.51 ± 0.26 | 
5 | C=C1C(=O)O[C@@H]2C[C@@]3(C)CCCC(C)=C3C[C@H]12 [Compound 3, alloalantholactone, reference compound] |  |  |  |  |  |  |  |  | 35.9 ± 0.48 | 17.9 ± 0.68 | 8.82 ± 0.14 | 34.5 ± 3.51 | 23.1 ± 1.18 | 
6 | COc1cccc2c1C(=O)c1c(O)c3c(c(O)c1C2=O)C[C@@](O)(C(C)=O)C[C@@H]3O[C@H]1C[C@H](NC[C@H]2C(=O)O[C@@H]3C[C@@]4(C)CCC=C(C)C4=C[C@@H]32)[C@H](O)[C@H](C)O1 |  |  |  |  |  |  |  |  |  |  |  |  |  | melting point: 152 to 158 °C
7 | C=C1C(=O)O[C@@H]2C[C@@]3(C)CCC=C(C)C3=C[C@H]12 [Compound 8, alanthodiene, reference compound] |  |  |  |  |  |  |  |  |  |  |  |  |  | IC50 ([1]; Homo sapiens, HEK293, 72 h): 9.07 ± 0.25 µM; IC50 ([2]; Homo sapiens, MCF7, 72 h): 4.31 ± 0.02 µM; IC50 ([3]; Homo sapiens): 4.94 ± 0.09 µM; IC50 ([4]; Homo sapiens, HCT-116, 72 h): 4.99 ± 0.06 µM; IC50 ([8]; Homo sapiens, A549, 72 h): 59.9 ± 2.26 µM
8 | COc1cccc2c1C(=O)c1c(O)c3c(c(O)c1C2=O)CC(O)(C(=O)CO)CC3OC1CC(NCC2C(=O)OC3CC4(C)CCCC5(C)OC45CC32)C(O)C(C)O1 (mixture of isomers) [Compound 6a] | 0.98 ± 0.23 | 2.94 ± 0.02 | 1.18 ± 0.01 | 0.25 ± 0.04 | 40.50 ± 4.05% |  | 54.22 ± 5.49% | 0.88 ± 0.11 |  |  |  |  |  | 
9 | C=C1C(=O)O[C@@H]2C[C@@]3(C)CCC[C@H](C)[C@@]34O[C@H]4[C@H]12 [Compound 5, epoxyalantholactolactone, reference compound] |  |  |  |  |  |  |  |  | 38.1 ± 1.08 | 11.4 ± 0.32 | 4.81 ± 0.12 | 5.12 ± 0.05 | 21.5 ± 0.75 | 
10 | C=C1C(=O)O[C@@H]2C[C@@]3(C)CCC[C@H](C)C3=C[C@H]12 [Compound 2, alantolactone, reference compound] |  |  |  |  |  |  |  |  | 36.47 ± 0.07 | 13.2 ± 0.93 | 5.48 ± 0.2 | 10.57 ± 0.04 | 36.7 ± 1.43 | 
11 | C=C1CCC[C@]2(C)C[C@H]3OC(=O)C(=C)[C@H]3CC12 (stereo partly shown) [Compound 1, isoalantholactone, reference compound] |  |  |  |  |  |  |  |  | 74.03 ± 0.51 | 17.5 ± 0.6 | 10.4 ± 0.79 | 11.3 ± 0.27 | 32 ± 3.24 | 
12 | C=C1C(=O)OC2CC3(C)CCCC4(C)OC34CC12 (stereo not shown) [Compound 6, epoxyalloalantholactone, reference compound] | 18.5 ± 0.2 | 24 ± 0.8 | 8.77 ± 0.01 | 9.75 ± 0.57 |  |  |  | 50.3 ± 1.11 | 29.77 ± 0.05 | 38.6 ± 0.86 | 16.8 ± 0.28 | 10.8 ± 0.18 | 61.7 ± 2.4 | 
13 | C=C1CCCC2(C)CC3OC(=O)C(CNC4CC(OC5CC(O)(C(=O)CO)Cc6c(O)c7c(c(O)c65)C(=O)c5c(OC)cccc5C7=O)OC(C)C4O)C3CC12 (stereo not shown) [Compound 1a] | 19.8 ± 0.42 | 11.1 ± 0.17 | 2.41 ± 0.03 | 2.81 ± 0.05 | 24.52 ± 7.61% | 27.61 ± 5.71% | — (“—” indicates activity absence for compounds (≤10%) in a particular test) | 2.21 ± 0.06 |  |  |  |  |  | 
14 | C=C1CCCC2(C)CC3OC(=O)C(CNC4CC(OC5CC(O)(C(C)=O)Cc6c(O)c7c(c(O)c65)C(=O)c5c(OC)cccc5C7=O)OC(C)C4O)C3CC12 (stereo not shown) [Compound 1b] | 3.43 ± 0.04 | 3.95 ± 0.03 | 0.96 ± 0.02 | 0.28 | — (“—” indicates activity absence for compounds (≤10%) in a particular test) | — (“—” indicates activity absence for compounds (≤10%) in a particular test) | — (“—” indicates activity absence for compounds (≤10%) in a particular test) | 0.93 ± 0.06 |  |  |  |  |  | 
15 | COc1cccc2c1C(=O)c1c(O)c3c(c(O)c1C2=O)CC(O)(C(C)=O)CC3OC1CC(NCC2C(=O)OC3CC4(C)CCCC5(C)OC45CC32)C(O)C(C)O1 (mixture of isomers) [Compound 6b] | 3.68 ± 0.16 | 1.47 ± 0.04 | 0.41 ± 0.02 | 0.26 ± 0.01 | 41.69 ± 2.13% | 26.74 ± 4.56% | — (“—” indicates activity absence for compounds (≤10%) in a particular test) | 0.56 ± 0.01 |  |  |  |  |  | 
